Data from patent US11739074B2, “Ras inhibitors” (Revolution Medicines, Inc., priority 2019, dated 2023).
pEC50, pIC50: −log10 of the molar value. Read-outs that look alike come from different tables or passages of the source.

How the values were obtained:
AsPC-1 (K-Ras G12D) [1] = experiment: CellTiter-Glo cell viability assay, AsPC-1; type: cell-based; settings: Homo sapiens, ASPC1, 120 h
Description: Determination of Cell Viability in RAS Mutant Cancer Cell Lines
Protocol: CellTiter-Glo® Cell Viability Assay
Note—The following protocol describes a procedure for monitoring cell viability of K-Ras mutant cancer cell lines in response to a compound of the invention. Other RAS isoforms may be employed, though the number of cells to be seeded will vary based on cell line used.
Test compounds (132.5 nL) were directly dispensed into the assay plates containing cells. […] On day 5, assay plates and their contents were equilibrated to room temperature for approximately 30 minutes. […] Luminescence was measured using the PerkinElmer Enspire. Data were normalized by the following: (Sample signal/Avg. DMSO)*100. The data were fit using a four-parameter logistic fit.

AsPC-1 (K-Ras G12D) [2] = experiment: Potency assay: pERK in AsPC-1 cells; type: cell-based; settings: Homo sapiens
[3] = AsPC-1, K-Ras G12D, 5-day treatment, read-out: AsPC-1 Cell Viability IC50
[4] = ASPC1, AsPC-1 cells, K-Ras G12D, read-out: pERK EC50 (AsPC-1 KRAS G12D)
[5] = read-out: AsPC-1 Cell Viability IC50, AsPC-1, K-Ras G12D, 5-day treatment
[6] = ASPC1, read-out: pERK EC50 (AsPC-1 KRAS G12D)

SMILES	pIC50 (AsPC-1 (K-Ras G12D) [1]; [3])	pEC50 (AsPC-1 (K-Ras G12D) [2]; [4])	pIC50 (AsPC-1 (K-Ras G12D) [1]; [5])	pEC50 (AsPC-1 (K-Ras G12D) [2]; [6])
CCn1c(-c2cccnc2[C@H](C)OC)c2c3cc(ccc31)-c1cc(O)cc(c1)C[C@H](NC(=O)[C@H](C(C)C)N(C)C(=O)CN(C)S(=O)(=O)[C@H]1CN1C)C(=O)N1CCC[C@H](N1)C(=O)OCC(C)(C)C2 (single isomer, unassigned) [Compound 91]	5.00 to 6.00	> 5.30		
CCn1c(-c2cccnc2[C@H](C)OC)c2c3cc(ccc31)-c1cc(O)cc(c1)C[C@H](NC(=O)[C@H](C(C)C)N(C)C(=O)CN(C)S(=O)(=O)[C@@H]1CN1C)C(=O)N1CCC[C@H](N1)C(=O)OCC(C)(C)C2 (single isomer, unassigned) [Compound 92]	5.00 to 6.00	> 5.30		
CCn1c(-c2cccnc2[C@H](C)OC)c2c3cc(ccc31)-c1cc(O)cc(c1)C[C@H](NC(=O)[C@H](C(C)C)N(C)C(=O)C1CCN(S(=O)(=O)[C@H]3CN3C)CC1)C(=O)N1CCC[C@H](N1)C(=O)OCC(C)(C)C2 (single isomer, unassigned) [Compound 108]	5.00 to 6.00	> 5.30		
CCn1c(-c2cccnc2[C@H](C)OC)c2c3cc(ccc31)-c1cc(O)cc(c1)C[C@H](NC(=O)[C@H](C(C)C)N(C)C(=O)C1CN(S(=O)(=O)[C@H]3CN3C)C1)C(=O)N1CCC[C@H](N1)C(=O)OCC(C)(C)C2 (single isomer, unassigned) [Compound 117]	5.00 to 6.00	> 5.30		
CCn1c(-c2cccnc2[C@H](C)OC)c2c3cc(ccc31)-c1cc(O)cc(c1)C[C@H](NC(=O)[C@H](C(C)C)N(C)C(=O)C1CN(S(=O)(=O)[C@@H]3CN3C)C1)C(=O)N1CCC[C@H](N1)C(=O)OCC(C)(C)C2 (single isomer, unassigned) [Compound 118]	< 5.00	> 5.30		
CCn1c(-c2cccnc2[C@H](C)OC)c2c3cc(ccc31)-c1cc(O)cc(c1)C[C@H](NC(=O)[C@H](C(C)C)N(C)C(=O)C1CCN(S(=O)(=O)[C@@H]3CN3C)CC1)C(=O)N1CCC[C@H](N1)C(=O)OCC(C)(C)C2 (single isomer, unassigned) [Compound 119]	5.00 to 6.00	> 5.30		
CCn1c(-c2cccnc2[C@H](C)OC)c2c3cc(ccc31)-c1cc(O)cc(c1)C[C@H](NC(=O)[C@H](C1CCCC1)N(C)C(=O)CN(C)C(=O)[C@@H]1N[C@@H]1C1(C#N)CC1)C(=O)N1CCC[C@H](N1)C(=O)OCC(C)(C)C2 (single isomer, unassigned) [Compound 308]	5.00 to 6.00	> 5.30		
CCn1c(-c2cnccc2COC)c2c3cc(ccc31)-c1cccc(c1)C[C@H](NC(=O)[C@H](C(C)C)N(C)C(=O)CCN=C=NC1(COC)CC1)C(=O)N1CCC[C@H](N1)C(=O)OCC(C)(C)C2 [72 A and B]	5.00 to 6.00	> 5.30		
CCn1c(-c2cnccc2COC)c2c3cc(ccc31)-c1cccc(c1)C[C@H](NC(=O)[C@H](C(C)C)N(C)C(=O)CCN=C=NC(C)(C)C)C(=O)N1CCC[C@H](N1)C(=O)OCC(C)(C)C2 [79 A and B]	5.00 to 6.00	> 5.30		
CCn1c(-c2cnccc2COC)c2c3cc(ccc31)-c1cc(O)cc(c1)C[C@H](NC(=O)[C@H](C(C)C)N(C)C(=O)CN(C)C(=O)[C@H]1N[C@H]1C(=O)OC)C(=O)N1CCC[C@H](N1)C(=O)OCC(C)(C)C2 [Compound 51]			< 5.00	> 5.30
CCn1c(-c2cccnc2[C@H](C)OC)c2c3cc(ccc31)-c1cccc(c1)C[C@H](NC(=O)[C@H](C(C)C)N(C)C(=O)CCN=C=NCCOC)C(=O)N1CCC[C@H](N1)C(=O)OCC(C)(C)C2 [Compound 74]	5.00 to 6.00	> 5.30		
CCn1c(-c2cccnc2[C@H](C)OC)c2c3cc(ccc31)-c1cccc(c1)C[C@H](NC(=O)[C@H](C(C)C)N(C)C(=O)[C@H]1C[C@H](N=C=NCCOC)C1)C(=O)N1CCC[C@H](N1)C(=O)OCC(C)(C)C2 [Compound 78]	5.00 to 6.00	> 5.30		
CCn1c(-c2cccnc2[C@H](C)OC)c2c3cc(ccc31)-c1cc(O)cc(c1)C[C@H](NC(=O)[C@H](C(C)C)N(C)C(=O)c1ncc(NC(=O)[C@H]3CN3)n1C)C(=O)N1CCC[C@H](N1)C(=O)OCC(C)(C)C2 [Compound 84]	5.00 to 6.00	> 5.30		
CCn1c(-c2cccnc2[C@H](C)OC)c2c3cc(ccc31)-c1cc(O)cc(c1)C[C@H](NC(=O)[C@H](C(C)C)N(C)C(=O)C1CCN(C(=O)[C@H]3CN3)CC1)C(=O)N1CCC[C@H](N1)C(=O)OCC(C)(C)C2 [Compound 86]	5.00 to 6.00	> 5.30		
CCn1c(-c2cccnc2[C@H](C)OC)c2c3cc(ccc31)-c1cc(O)cc(c1)C[C@H](NC(=O)[C@H](C(C)C)N(C)C(=O)C1CCN(C(=O)[C@@H]3CN3)CC1)C(=O)N1CCC[C@H](N1)C(=O)OCC(C)(C)C2 [Compound 89]	< 5.00	> 5.30		
CCn1c(-c2cnccc2COC)c2c3cc(ccc31)-c1cc(O)cc(c1)C[C@H](NC(=O)[C@H](C(C)C)N(C)C(=O)CN(C)C(=O)[C@H]1N[C@H]1c1ccc(OC)cc1)C(=O)N1CCC[C@H](N1)C(=O)OCC(C)(C)C2 [Compound 93]			< 5.00	> 5.30
CCn1c(-c2cnccc2COC)c2c3cc(ccc31)-c1cc(O)cc(c1)C[C@H](NC(=O)[C@H](C(C)C)N(C)C(=O)CN(C)C(=O)[C@H]1N[C@@H]1c1ccc(OC)cc1)C(=O)N1CCC[C@H](N1)C(=O)OCC(C)(C)C2 [Compound 97]			5.00 to 6.00	> 5.30
CCn1c(-c2cnccc2COC)c2c3cc(ccc31)-c1cc(O)cc(c1)C[C@H](NC(=O)[C@H](C(C)C)N(C)C(=O)CN(C)C(=O)[C@H]1N[C@H]1C1CC1)C(=O)N1CCC[C@H](N1)C(=O)OCC(C)(C)C2 [Compound 104]			5.00 to 6.00	> 5.30
CCn1c(-c2cnccc2COC)c2c3cc(ccc31)-c1cc(O)cc(c1)C[C@H](NC(=O)[C@H](C(C)C)N(C)C(=O)CN(C)C(=O)[C@@H]1N[C@@H]1C)C(=O)N1CCC[C@H](N1)C(=O)OCC(C)(C)C2 [Compound 105]			5.00 to 6.00	> 5.30
CCn1c(-c2cccnc2[C@H](C)OC)c2c3cc(ccc31)-c1cc(O)cc(c1)C[C@H](NC(=O)[C@H](C(C)C)N(C)C(=O)[C@H]1CN1)C(=O)N1CCC[C@H](N1)C(=O)OCC(C)(C)C2 [Compound 112]	5.00 to 6.00	> 5.30		
CCn1c(-c2cccnc2[C@H](C)OC)c2c3cc(ccc31)-c1cc(O)cc(c1)C[C@H](NC(=O)[C@H](C(C)C)N1CCC3(CCN(C(=O)[C@@H]4CN4)C3)C1=O)C(=O)N1CCC[C@H](N1)C(=O)OCC(C)(C)C2 (stereo partly drawn) [Compound 113]	5.00 to 6.00	> 5.30		
CCn1c(-c2cccnc2[C@H](C)OC)c2c3cc(ccc31)-c1cc(O)cc(c1)C[C@H](NC(=O)[C@H](C(C)C)N(C)C(=O)[C@@H](C)N(C)C(=O)[C@H]1CN1)C(=O)N1CCC[C@H](N1)C(=O)OCC(C)(C)C2 [Compound 114]			5.00 to 6.00	> 5.30
CCn1c(-c2cnccc2COC)c2c3cc(ccc31)-c1cc(O)cc(c1)C[C@H](NC(=O)[C@H](C(C)C)N(C)C(=O)CCNC1=NCCO1)C(=O)N1CCC[C@H](N1)C(=O)OCC(C)(C)C2 [Compound 120]	5.00 to 6.00	> 5.30		
CCn1c(-c2cccnc2[C@H](C)OC)c2c3cc(ccc31)-c1cccc(c1)C[C@H](NC(=O)[C@H](C(C)C)N1CC[C@@H](CN=C=NCCOC)C1)C(=O)N1CCC[C@H](N1)C(=O)OCC(C)(C)C2 [Compound 121]	5.00 to 6.00	> 5.30		
